Assay results published in ChEMBL document CHEMBL5465560, “Selectivity Literature for EUbOPEN Chemogenomic Library” (2024).

What was measured:
[1] = molecular target: T1, Serine/threonine-protein kinase Nek1 (Homo sapiens) (UniProt Q96PY6); test: Selectivity interaction (Kinase panel (Z-LYTE Assay)) EUB0001632a NEK1; settings: at 10 µM
T1 sequence (whole entry): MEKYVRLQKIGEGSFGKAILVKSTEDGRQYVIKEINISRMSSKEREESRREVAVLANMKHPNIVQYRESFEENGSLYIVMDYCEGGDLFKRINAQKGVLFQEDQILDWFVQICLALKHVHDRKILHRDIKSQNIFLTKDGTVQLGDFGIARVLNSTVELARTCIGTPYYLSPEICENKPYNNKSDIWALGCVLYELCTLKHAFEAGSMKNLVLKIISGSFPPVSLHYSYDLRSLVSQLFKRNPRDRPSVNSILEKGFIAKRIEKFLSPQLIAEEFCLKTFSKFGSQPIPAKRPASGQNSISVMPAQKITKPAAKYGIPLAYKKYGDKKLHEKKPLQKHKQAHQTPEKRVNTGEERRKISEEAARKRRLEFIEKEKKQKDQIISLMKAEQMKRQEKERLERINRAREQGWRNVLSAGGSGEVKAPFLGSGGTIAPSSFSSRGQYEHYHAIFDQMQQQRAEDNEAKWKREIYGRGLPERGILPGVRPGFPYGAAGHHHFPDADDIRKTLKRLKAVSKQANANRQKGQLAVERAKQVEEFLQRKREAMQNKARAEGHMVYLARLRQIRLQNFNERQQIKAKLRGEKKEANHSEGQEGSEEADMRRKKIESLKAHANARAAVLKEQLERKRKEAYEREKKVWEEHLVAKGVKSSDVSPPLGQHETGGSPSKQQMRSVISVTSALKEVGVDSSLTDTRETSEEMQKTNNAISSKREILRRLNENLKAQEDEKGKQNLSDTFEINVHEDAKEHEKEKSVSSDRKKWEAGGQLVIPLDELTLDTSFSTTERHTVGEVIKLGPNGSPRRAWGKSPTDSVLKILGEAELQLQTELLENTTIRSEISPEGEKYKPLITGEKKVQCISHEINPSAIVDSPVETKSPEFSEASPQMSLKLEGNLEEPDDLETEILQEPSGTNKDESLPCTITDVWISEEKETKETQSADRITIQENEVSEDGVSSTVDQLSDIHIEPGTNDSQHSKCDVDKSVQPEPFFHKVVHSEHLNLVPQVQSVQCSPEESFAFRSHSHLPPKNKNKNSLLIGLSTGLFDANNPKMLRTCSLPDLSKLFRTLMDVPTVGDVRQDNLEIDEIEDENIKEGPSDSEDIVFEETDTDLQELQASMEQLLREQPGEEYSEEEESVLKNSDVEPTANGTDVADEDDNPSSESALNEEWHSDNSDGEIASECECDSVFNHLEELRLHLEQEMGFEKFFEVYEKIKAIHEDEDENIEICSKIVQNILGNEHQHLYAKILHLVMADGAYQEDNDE

[2] = molecular target: Ribosomal protein S6 kinase alpha-3 (Homo sapiens, UniProt P51812); test: Selectivity interaction (ActivX KiNativ screen (kinase selectivity in THP-1 cell lysates)) EUB0000639a RPS6KA3; type: subcellular; settings: lysate, at 0.01 µM
[3] = molecular target: Serine/threonine-protein kinase MARK2 (Homo sapiens) (UniProt Q7KZI7); test: Selectivity interaction (ActivX KiNativ screen (kinase selectivity in THP-1 cell lysates)) EUB0000639a MARK2; type: subcellular; settings: lysate, at 0.04 µM
[4] = molecular target: T2, Serine/threonine-protein kinase 4 (Homo sapiens) (UniProt Q13043); test: Selectivity interaction (Kinase panel (Invitrogen)) EUB0000639a STK4; settings: at 200 nM
T2 sequence (whole entry): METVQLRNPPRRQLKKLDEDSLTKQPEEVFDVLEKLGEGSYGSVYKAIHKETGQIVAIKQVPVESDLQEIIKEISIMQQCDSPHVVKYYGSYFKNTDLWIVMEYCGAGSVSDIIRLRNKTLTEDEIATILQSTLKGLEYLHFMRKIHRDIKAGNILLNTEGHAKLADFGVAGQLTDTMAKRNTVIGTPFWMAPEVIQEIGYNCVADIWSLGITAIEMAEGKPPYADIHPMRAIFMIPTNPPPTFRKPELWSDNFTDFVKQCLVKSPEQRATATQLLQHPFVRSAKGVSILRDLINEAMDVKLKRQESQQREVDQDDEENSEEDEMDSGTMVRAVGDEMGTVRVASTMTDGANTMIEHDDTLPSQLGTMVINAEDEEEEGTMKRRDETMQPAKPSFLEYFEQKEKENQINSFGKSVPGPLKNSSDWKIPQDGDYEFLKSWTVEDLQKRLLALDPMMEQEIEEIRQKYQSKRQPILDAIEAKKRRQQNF

[5] = molecular target: T3, Mitogen-activated protein kinase kinase kinase kinase 2 (Homo sapiens) (UniProt Q12851); test: Selectivity interaction (KinomeScan (DiscoverX)) EUB0000595a MAP4K2; settings: at 10 µM
T3 sequence (whole entry): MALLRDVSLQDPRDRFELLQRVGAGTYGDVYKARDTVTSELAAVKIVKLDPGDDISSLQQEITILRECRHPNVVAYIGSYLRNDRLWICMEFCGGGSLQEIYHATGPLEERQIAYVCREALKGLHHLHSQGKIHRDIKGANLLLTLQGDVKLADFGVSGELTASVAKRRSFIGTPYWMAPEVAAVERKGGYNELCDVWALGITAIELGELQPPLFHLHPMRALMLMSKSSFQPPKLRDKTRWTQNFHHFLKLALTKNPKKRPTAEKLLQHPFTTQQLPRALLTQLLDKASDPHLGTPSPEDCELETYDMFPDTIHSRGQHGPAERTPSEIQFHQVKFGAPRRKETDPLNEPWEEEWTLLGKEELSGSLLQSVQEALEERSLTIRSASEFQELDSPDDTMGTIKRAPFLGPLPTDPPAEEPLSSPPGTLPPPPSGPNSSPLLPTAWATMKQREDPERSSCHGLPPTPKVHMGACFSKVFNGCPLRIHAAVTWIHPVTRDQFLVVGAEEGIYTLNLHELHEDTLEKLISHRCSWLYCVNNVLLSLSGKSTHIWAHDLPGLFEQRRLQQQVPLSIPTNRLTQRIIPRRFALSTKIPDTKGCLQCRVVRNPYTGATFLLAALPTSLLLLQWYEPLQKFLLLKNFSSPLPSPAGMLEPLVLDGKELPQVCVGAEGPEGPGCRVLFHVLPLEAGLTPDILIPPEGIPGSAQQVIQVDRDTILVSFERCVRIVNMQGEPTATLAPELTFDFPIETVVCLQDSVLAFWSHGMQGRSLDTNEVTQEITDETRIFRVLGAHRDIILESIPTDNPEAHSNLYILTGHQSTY

Chain of Ribosomal protein S6 kinase alpha-3 (P51812 whole entry): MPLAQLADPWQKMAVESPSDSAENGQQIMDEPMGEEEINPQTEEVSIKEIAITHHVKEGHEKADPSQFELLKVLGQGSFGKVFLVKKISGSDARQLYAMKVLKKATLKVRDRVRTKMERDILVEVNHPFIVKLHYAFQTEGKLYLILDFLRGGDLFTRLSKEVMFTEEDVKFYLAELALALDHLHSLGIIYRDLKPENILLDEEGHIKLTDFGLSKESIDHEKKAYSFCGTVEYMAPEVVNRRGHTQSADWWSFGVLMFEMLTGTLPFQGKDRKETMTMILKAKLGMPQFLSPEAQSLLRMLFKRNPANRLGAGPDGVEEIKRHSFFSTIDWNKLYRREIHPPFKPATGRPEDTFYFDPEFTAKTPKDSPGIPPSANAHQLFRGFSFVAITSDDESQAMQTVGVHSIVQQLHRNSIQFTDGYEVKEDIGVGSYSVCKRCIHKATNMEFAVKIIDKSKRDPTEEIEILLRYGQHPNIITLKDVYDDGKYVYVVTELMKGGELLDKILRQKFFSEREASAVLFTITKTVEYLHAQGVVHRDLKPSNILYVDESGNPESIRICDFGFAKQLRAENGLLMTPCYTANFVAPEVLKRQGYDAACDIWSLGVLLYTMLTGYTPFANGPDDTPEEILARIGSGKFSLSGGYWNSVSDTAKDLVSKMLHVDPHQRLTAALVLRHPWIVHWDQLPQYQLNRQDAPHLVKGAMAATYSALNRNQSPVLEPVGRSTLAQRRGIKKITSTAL
Chain of Serine/threonine-protein kinase MARK2 (Homo sapiens) (Q7KZI7 whole entry): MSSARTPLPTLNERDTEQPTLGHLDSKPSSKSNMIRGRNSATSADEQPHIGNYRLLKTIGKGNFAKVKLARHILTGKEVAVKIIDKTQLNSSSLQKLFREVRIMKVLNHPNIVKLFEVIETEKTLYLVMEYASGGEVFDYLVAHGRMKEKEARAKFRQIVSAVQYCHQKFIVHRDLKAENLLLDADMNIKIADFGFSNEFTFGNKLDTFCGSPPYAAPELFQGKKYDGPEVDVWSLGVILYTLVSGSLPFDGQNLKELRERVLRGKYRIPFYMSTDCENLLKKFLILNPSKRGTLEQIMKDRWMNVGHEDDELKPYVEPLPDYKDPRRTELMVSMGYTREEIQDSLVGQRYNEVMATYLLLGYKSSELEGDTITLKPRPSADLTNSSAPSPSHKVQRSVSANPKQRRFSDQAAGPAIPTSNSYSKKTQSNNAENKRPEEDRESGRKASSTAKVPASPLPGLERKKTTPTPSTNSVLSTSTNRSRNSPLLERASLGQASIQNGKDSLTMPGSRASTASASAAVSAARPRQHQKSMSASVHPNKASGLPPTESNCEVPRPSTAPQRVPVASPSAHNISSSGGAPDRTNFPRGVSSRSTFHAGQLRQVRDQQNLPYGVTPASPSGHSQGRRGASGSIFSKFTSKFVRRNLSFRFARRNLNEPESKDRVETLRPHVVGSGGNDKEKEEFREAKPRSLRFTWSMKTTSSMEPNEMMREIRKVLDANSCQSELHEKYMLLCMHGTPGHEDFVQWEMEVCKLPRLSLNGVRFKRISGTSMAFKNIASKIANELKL

## Cn1cc(-n2cnc3c(NCc4nc5cc(Cl)c(Cl)cc5[nH]4)nc(N4CCOCC4)nc32)cn1
[1]
  % of control: -1.93%

## CC[C@@H]1[C@H](F)C(=O)N[C@@H]1COc1nccc2cc(C(N)=O)c(OC)cc12 [ZIMLOVISERTIB]
[2]
  % of inhibition: 5%
[3]
  % of inhibition: 8.3%
[4]
  % of inhibition: 13.8%

## COCC(=O)NC/C=C/c1ccc2ncnc(Nc3ccc(Oc4ccc(C)nc4)c(C)c3)c2c1 [CP-724714]
[5]
  % of control: 100%
